# pIC50: −log10 of the molar value. Read-outs that look alike come from different tables or passages of the source.
# What was measured:
# MF patients = conditions: cited from earlier work
# [1] = test system: human myeloid progenitors (CFU-GM); assay: Colony forming cell assay, human myeloid (granulocyte-monocyte, CFU-GM) progenitor proliferation; assay type: cell-based; conditions: single agent; for pIC50: Homo sapiens, 336 h, 14 days, CFU-GM
# Procedure: (§1) Clonogenic progenitors of human erythroid (CFU-E, BFU-E), granulocyte-monocyte (CFU-GM), and multipotential (CFU-GEMM) lineages were assessed in a semi-solid methylcellulose-based media formulation containing rhIL-3 (10 ng/mL), rhGM-SCF (10 ng/mL), rhSCF (50 ng/mL), and Epo (3 U/mL).
# (§2) In addition, 5-FU was evaluated at 1.0, 0.1 and 0.01 μg/mL as a positive control for toxicity.
# (§3) Normal human bone marrow light density cells (lot #0210901), derived from normal bone marrow, (Lonza, Maryland) and qualified at ReachBio, were stored at −152° C. until required for the assay. On the day of the experiment, the cells were thawed rapidly, diluted in 10 mL of Iscove's modified Dulbecco's medium containing 10% fetal bovine serum (IMDM+10% FBS) and washed by centrifugation (approximately 1500 r.p.m. for 10 minutes at room temperature). The supernatant was discarded and the cell pellets were resuspended in a known volume of IMDM+10% FBS. A cell count (3% glacial acetic acid) and viability assessment (trypan blue exclusion test) was performed for the bone marrow sample.
# (§4) Clonogenic progenitors of human megakaryocyte (CFU-Mk) were assessed in a collagen-based media formulation containing rhIL-3 (10 ng/mL), rhIL-6 (10 ng/mL), and Tpo (50 ng/mL). Clonogenic progenitors of the human erythroid (CFU-E and BFU-E), myeloid (CFU-GM), and megakaryocyte (CFU-Mk) lineages were set up in the media formulations described above. Individually, the test compounds were added to the medium to give the final desired concentrations (10, 3.33, 1, 0.333, 0.1, 0.0333, 0.01 and 0.00333 μM). […] Solvent control cultures (containing no compound but 0.1% DMSO) as well as standard controls (containing no compound and no DMSO) were also initiated. Once introduced into the matrices, the tubes were vortexed to ensure an equal distribution throughout.
# (§5) Human myeloid and erythroid progenitor assays were initiated at 1.2×10^4 cells per culture (lot #0210921) and the human megakaryocyte assays were initiated at 1.2×10^5 cells per culture (lot #0210921). Following 14 days in culture, erythroid and myeloid colonies were assessed microscopically in situ and scored by trained personnel. The colonies were divided into the following categories based on size and morphology: CFU-E, BFU-E, CFU-GM, and CFU-GEMM. The human megakaryocyte cultures were transferred from the 35 mm dishes to labeled glass slides, fixed with methanol/acetone fixative, and then stained with anti-human CD41 antibody and an alkaline phosphate detection system according to manufacturers' instructions. The colonies were assessed microscopically and scored by trained personnel and divided into the following categories based on size: CFU-Mk (3-20), CFU-Mk (21-49), and CFU-Mk (≥50).
# (§6) Statistical analysis: The mean±standard deviation of three replicate cultures was calculated for both erythroid and myeloid progenitors. Two-tailed standard t-tests were performed to assess if there was a difference in the number of colonies generated between solvent control and treated cultures. Due to the potential subjectivity of colony enumeration, a p value of less than 0.01 is deemed significant. To calculate the concentration of 50% inhibition of colony growth (IC50) for each compound, a dose response curve was generated plotting the log of the compound concentration versus the percentage of control colony growth using GraphPad Prism 9 software.
# (§7) Erythroid (CFU-E and BFU-E) and myeloid (CFU-GM) colony enumeration was performed by trained personnel. In addition, the distribution of colony types as well as general colony and cellular morphology was analyzed. The variance in colony number detected in replicate cultures was representative of the historical coefficient of variation for colony enumeration using these types of assays. The number and distribution of colonies detected in the solvent control (0.1% DMSO for single agents) was no different from the standard control (containing no compound and no DMSO). […]
# [2] = test system: human erythroid progenitors (CFU-E, BFU-E); assay: Colony forming cell assay, human erythroid progenitor (CFU-E, BFU-E) proliferation; assay type: cell-based; conditions: 336 h, single agent, 14 days, CFU-E and BFU-E
# Procedure: as §1, §2, §3
# Clonogenic progenitors of human megakaryocyte (CFU-Mk) were assessed in a collagen-based media formulation containing rhIL-3 (10 ng/mL), rhIL-6 (10 ng/mL), and Tpo (50 ng/mL). Clonogenic progenitors of the human erythroid (CFU-E and BFU-E), myeloid (CFU-GM), and megakaryocyte (CFU-Mk) lineages were set up in the media formulations described above. Individually, the test compounds were added to the medium to give the final desired concentrations (10, 3.33, 1, 0.333, 0.1, 0.0333, 0.01 and 0.00333 μM). […]
# (§8) Human myeloid and erythroid progenitor assays were initiated at 1.2×10^4 cells per culture (lot #0210921) and the human megakaryocyte assays were initiated at 1.2×10^5 cells per culture (lot #0210921). Following 14 days in culture, erythroid and myeloid colonies were assessed microscopically in situ and scored by trained personnel. […] The colonies were assessed microscopically and scored by trained personnel and divided into the following categories based on size: CFU-Mk (3-20), CFU-Mk (21-49), and CFU-Mk (≥50).
# (§9) Statistical analysis: The mean±standard deviation of three replicate cultures was calculated for both erythroid and myeloid progenitors. […]
# as §7
# R/R MF = conditions: monotherapy, cited from earlier work
# [3] = test system: human megakaryocyte progenitors (CFU-Mk); assay: Colony forming cell assay, human megakaryocyte progenitor (CFU-Mk) proliferation; assay type: cell-based; conditions: for pIC50: Homo sapiens, read-out: IC50, total CFU-Mk (megakaryocyte progenitor proliferation)
# Procedure: as §2, §3, §4, §5, §6
# Other than the test compounds being combined, the only change from the method in Example 1 was a 0.2% DMSO solvent control instead of 0.1% DMSO. The results are provided in FIGS. 2A-4C (FIGS. 2A-2C are human megakaryocytes (CFU-MK), FIGS. 3A-3C are human erythroid (CFU-E, BFU-E), and FIGS. 4A-4C are human granulocyte-monocyte (CFU-GM).
# PIM3 = conditions: read-out: Preclinical IC50, PIM3; cited from earlier work
# PIM1 = conditions: read-out: Preclinical IC50, PIM1; cited from earlier work
# PIM2 = conditions: read-out: Preclinical IC50, PIM2; cited from earlier work
# R/R AML = R/R AML (n = 30); Other (n = 9); cited from earlier work
# R/R MM = conditions: n = 79; cited from earlier work
# [4] = test system: human myeloid, erythroid and megakaryocyte progenitors; assay: Colony forming cell assays taken together (erythroid, myeloid, megakaryocyte progenitors); assay type: cell-based; conditions: single agents compared
# Procedure: as §1, §2
# Normal human bone marrow light density cells (lot #0210901), derived from normal bone marrow, (Lonza, Maryland) and qualified at ReachBio, were stored at −152° C. until required for the assay. […]
# Clonogenic progenitors of human megakaryocyte (CFU-Mk) were assessed in a collagen-based media formulation containing rhIL-3 (10 ng/mL), rhIL-6 (10 ng/mL), and Tpo (50 ng/mL). […]
# as §8, §9
# [5] = MOMENTUM, monotherapy 200 mg QD, N = 195
# [6] = COMFORT 1, monotherapy 5-25 mg BID, N = 155
structure (smiles),measurement,setting,value
N#CCNC(=O)c1ccc(-c2ccnc(Nc3ccc(N4CCOCC4)cc3)n2)cc1 [momelotinib],"TEAE Anemia, All Gr",MF patients; [5],99%
same,"TEAE Anemia, ≥3 Gr",MF patients; [5],61%
same,"TEAE Neutropenia, All Gr",MF patients; [5],29%
same,"TEAE Neutropenia, ≥3 Gr",MF patients; [5],12%
same,"TEAE Thrombocytopenia, All Gr",MF patients; [5],76%
same,"TEAE Thrombocytopenia, ≥3 Gr",MF patients; [5],28%
same,pIC50,[1],6.59
same,"concentrations at which myeloid progenitor proliferation was (significantly, additionally) inhibited","[1]; vs 0.1% DMSO solvent control, p<0.01",1.0 µM
same,pIC50,[2],5.80
same,SVR35 at Week 24,R/R MF; ≥25 × 10^9/L PLT,23%
same,TSS50 at Week 24,R/R MF; ≥25 × 10^9/L PLT,25%
same,pIC50,[3]; single agent,6.52
C[C@H]1CN(c2c(NC(=O)c3ccc(F)c(-c4c(F)cccc4F)n3)cnc3c2CC[C@H]3O)C[C@@H](N)[C@@H]1O [INCB053914],pIC50,PIM3,9.92
same,pIC50,PIM1,9.62
same,pIC50,PIM2,7.52
same,"Hem AE, G3+ anemia",R/R AML,G3+ Anemia (18%)
same,"Hem AE, G3+ thrombocytopenia",R/R AML,(13%)
same,"Non-hem AE, ALT/AST increased",R/R AML,"(36%),"
same,"Non-hem AE, diarrhea",R/R AML,"diarrhea (21%), rash"
same,"Non-hem AE, nausea",R/R AML,"nausea (23%),"
same,"Non-hem AE, rash",R/R AML,(15%)
"CC1(C)CCC(c2ccc(Cl)cc2)=C(CN2CCN(c3ccc(C(=O)NS(=O)(=O)c4ccc(N[C@H](CCN5CCOCC5)CSc5ccccc5)c(S(=O)(=O)C(F)(F)F)c4)cc3)CC2)C1 [Navitoclax, navitoclax]",SVR35 at Week 24,R/R MF; ≥100 × 10^9/L PLT,7%
same,TSS50 at Week 24,R/R MF; ≥100 × 10^9/L PLT,10%
C[C@@H]1C[C@H](N)C[C@H](c2ccncc2NC(=O)c2ccc(F)c(-c3c(F)cccc3F)n2)C1 [PIM447],"Hem AE, G3+ anemia",R/R MM,"G3+ anemia (20%),"
same,"Hem AE, G3+ neutropenia",R/R MM,(20%)
same,"Hem AE, G3+ thrombocytopenia",R/R MM,(33%)
same,"Non-hem AE, G3+ diarrhea",R/R MM,"(6.3%),"
same,"Non-hem AE, pneumonia",R/R MM,pneumonia (7.6%)
N#CC[C@H](C1CCCC1)n1cc(-c2ncnc3[nH]ccc23)cn1 [ruxolitinib],"TEAE Anemia, All Gr",MF patients; [6],96%
same,"TEAE Anemia, ≥3 Gr",MF patients; [6],45%
same,"TEAE Neutropenia, All Gr",MF patients; [6],19%
same,"TEAE Neutropenia, ≥3 Gr",MF patients; [6],7%
same,"TEAE Thrombocytopenia, All Gr",MF patients; [6],70%
same,"TEAE Thrombocytopenia, ≥3 Gr",MF patients; [6],13%
same,relative potency of inhibition of progenitor proliferation,[4],most potent
same,pIC50,[1],7.00
same,pIC50,[2],6.96
same,pIC50,[3]; single agent,6.70
same,concentrations at which total CFU-Mk was (significantly) inhibited,"[3]; single agent, vs solvent control",≥ 0.033 µM
same,relative potency of inhibition of megakaryocyte progenitors,[3]; single agents compared,most potent
